tested on: MDA-MB-231 human breast cancer cells; experiment: Cell proliferation assay (CellTiter-Glo, 72 hours treatment); type: cell-based; settings: Homo sapiens; MDA-MB-231 cells, 72 hours at 37° C., CellTiter-Glo; read-out: MDA-MB-231 cell proliferation assay (IC50)
Summary of the method: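 IC50 categories: under 100 nM +++, 100–1000 nM ++, above 1000 nM +, derived by sigmoidal curve fitting of CellTiter-Glo luminescence. Cells plated at 2,500 per well, dosed the following day and exposed 72 h at 37 °C versus DMSO control.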

| Compound | IC50 [nM] |
| --- | --- |
| COc1cncc2c1[C@]1(O)[C@H](O)[C@H](CN(C)C)[C@@H](c3ccccc3)[C@]1(c1ccc(C(F)F)cc1)O2 (single isomer, unassigned) [106F] | 100 to 1000 |
| COCCN(C)C[C@H]1[C@@H](O)[C@@]2(O)c3c(OC)cncc3O[C@@]2(c2ccc(C#N)cc2)[C@@H]1c1ccccc1 (single isomer, unassigned) [261F] | < 100 |
| COc1cncc2c1[C@]1(O)[C@@H](CNCc3ccnn3C)[C@H](CO)[C@@H](c3ccccc3)[C@]1(c1ccc(C#N)cc1)O2 (racemic) [204F, Rac-4-((4bR,5R,6R,7S,7aR)-4b-hydroxy-6-(hydroxymethyl)-4-methoxy-5-((((1-methyl-1H-pyrazol-5-yl)methyl)amino)methyl)-7-phenyl-4b,5,6,7-tetrahydro-7aH-cyclopenta[4,5]furo[2,3-c]pyridin-7a-yl)benzonitrile] | < 100 |
| COc1cncc2c1[C@]1(O)[C@H](O)[C@H](C(=O)N(C)CCF)[C@@H](c3ccccc3)[C@]1(c1ccc(Br)cc1)O2 (racemic) [247F, Rac-(4bS,5R,6R,7S,7aR)-7a-(4-bromophenyl)-N-(2-fluoroethyl)-4b,5-dihydroxy-4-methoxy-N-methyl-7-phenyl-4b,6,7,7a-tetrahydro-5H-cyclopenta[4,5]furo[2,3-c]pyridine-6-carboxamide] | < 100 |
| COc1cncc2c1[C@]1(O)[C@H](O)[C@H](CN(C)CC(F)F)[C@@H](c3ccccc3)[C@]1(c1ccc(C#N)cc1)O2 (single isomer, unassigned) [112F] | 100 to 1000 |
| COc1cncc2c1[C@]1(O)[C@@H](CNCc3ccncc3)[C@H](CO)[C@@H](c3ccccc3)[C@]1(c1ccc(C#N)cc1)O2 (racemic) [188F, Rac-4-((4bR,5R,6R,7S,7aR)-4b-hydroxy-6-(hydroxymethyl)-4-methoxy-7-phenyl-5-(((pyridin-4-ylmethyl)amino)methyl)-4b,5,6,7-tetrahydro-7aH-cyclopenta[4,5]furo[2,3-c]pyridin-7a-yl)benzonitrile] | < 100 |
| COc1cncc2c1[C@]1(O)[C@H](O)[C@H](CN3CCCC3)[C@@H](c3ccccc3)[C@]1(c1ccc(C#N)cc1)O2 (racemic) [72F, rac-4-((4bS,5R,6S,7S,7aR)-4b,5-dihydroxy-4-methoxy-7-phenyl-6-(pyrrolidin-1-ylmethyl)-4b,5,6,7-tetrahydro-7aH-cyclopenta[4,5]furo[2,3-c]pyridin-7a-yl)benzonitrile] | 100 to 1000 |
| CN(C)C(=O)[C@H]1[C@@H](O)[C@@]2(O)c3ncc(Cl)cc3O[C@@]2(c2ccc(C(F)(F)F)cc2)[C@@H]1c1ccccc1 (single isomer, unassigned) [8F] | 100 to 1000 |
| COc1cncc2c1[C@]1(O)[C@H](O)[C@H](CN(C)C3COC3)[C@@H](c3ccccc3)[C@]1(c1ccc(C#N)cc1)O2 (racemic) [238F, Rac-4-((4bS,5R,6S,7S,7aR)-4b,5-dihydroxy-4-methoxy-6-((methyl(oxetan-3-yl)amino)methyl)-7-phenyl-4b,5,6,7-tetrahydro-7aH-cyclopenta[4,5]furo[2,3-c]pyridin-7a-yl)benzonitrile] | 100 to 1000 |
| COc1cncc2c1[C@]1(O)[C@H](O)[C@H](CN3CCN(C)CC3)[C@@H](c3ccccc3)[C@]1(c1ccc(C#N)cc1)O2 (racemic) [68F, Rac-4-((4bS,5R,6S,7S,7aR)-4b,5-dihydroxy-4-methoxy-6-((4-methylpiperazin-1-yl)methyl)-7-phenyl-4b,5,6,7-tetrahydro-7aH-cyclopenta[4,5]furo[2,3-c]pyridin-7a-yl)benzonitrile] | 100 to 1000 |
| COc1nc(C#N)cc2c1[C@]1(O)[C@H](O)[C@H](CN3CC(F)(F)C3)[C@@H](c3ccccc3)[C@]1(c1ccc(C#N)cc1)O2 (racemic) [207Fa, Rac-(5aR,6S,7S,8R,8aS)-5a-(4-cyanophenyl)-7-((3,3-difluoroazetidin-1-yl)methyl)-8,8a-dihydroxy-1-methoxy-6-phenyl-5a,7,8,8a-tetrahydro-6H-cyclopenta[4,5]furo[3,2-c]pyridine-3-carbonitrile] | 100 to 1000 |
| CNS(=O)(=O)[C@H]1[C@@H](O)[C@@]2(O)c3ncc(Cl)cc3O[C@@]2(c2ccc(Br)cc2)[C@@H]1c1ccccc1 (racemic) [124F, Rac-(5aR,6S,7R,8S,8aS)-5a-(4-bromophenyl)-3-chloro-8,8a-dihydroxy-N-methyl-6-phenyl-5a,7,8,8a-tetrahydro-6H-cyclopenta[4,5]furo[3,2-b]pyridine-7-sulfonamide] | 100 to 1000 |
| COc1cncc2c1[C@]1(O)[C@H](O)[C@H](CN(C)Cc3ccccc3)[C@@H](c3ccccc3)[C@]1(c1ccc(C#N)cc1)O2 (racemic) [76F, Rac-4-((4bS,5R,6S,7S,7aR)-6-((benzyl(methyl)amino)methyl)-4b,5-dihydroxy-4-methoxy-7-phenyl-4b,5,6,7-tetrahydro-7aH-cyclopenta[4,5]furo[2,3-c]pyridin-7a-yl)benzonitrile] | < 100 |
| COc1ccc([C@@]23Oc4cc(Cl)cnc4[C@]2(O)[C@H](O)[C@H](C(=O)N(C)C)[C@H]3c2ccccc2)cc1 (single isomer, unassigned) [5F] | 100 to 1000 |
| COc1cncc2c1[C@]1(O)[C@H](O)[C@H](N)[C@@H](c3ccccc3)[C@]1(c1ccc(C(F)F)cc1)O2 (racemic) [270F, Rac-(4bS,5R,6R,7R,7aR)-6-amino-7a-(4-(difluoromethyl)phenyl)-4-methoxy-7-phenyl-5,6,7,7a-tetrahydro-4bH-cyclopenta[4,5]furo[2,3-c]pyridine-4b,5-diol] | 100 to 1000 |
| O[C@]12c3ncc(Cl)cc3O[C@@]1(c1ccc(Br)cc1)[C@H](c1ccccc1)[C@H]1CO[C@H]12 (racemic) [60F, Rac-(2aS,3S,3aR,8bS,8cR)-3a-(4-bromophenyl)-6-chloro-3-phenyl-2a,3,3a,8c-tetrahydrooxeto[3″,2″:4′,5′]cyclopenta[1′,2′:4,5]furo[3,2-b]pyridin-8b(2H)-ol] | > 1000 |
| CNc1cc2c(c(OC)n1)[C@]1(O)[C@H](O)[C@H](CN(C)C)[C@@H](c3ccccc3)[C@]1(c1ccc(C#N)cc1)O2 (racemic) [150F, Rac-4-((5aR,6S,7S,8R,8aS)-7-((dimethylamino)methyl)-8,8a-dihydroxy-1-methoxy-3-(methylamino)-6-phenyl-6,7,8,8a-tetrahydro-5aH-cyclopenta[4,5]furo[3,2-c]pyridin-5a-yl)benzonitrile] | < 100 |
| N#Cc1ccc([C@@]23Oc4cc(Cl)cnc4[C@]2(O)[C@@H]2OC(=O)N[C@@H]2[C@H]3c2ccccc2)cc1 (racemic) [54F, Rac-4-((3aR,3bS,8aR,9R,9aR)-6-chloro-3b-hydroxy-2-oxo-9-phenyl-1,2,3a,3b,9,9a-hexahydro-8aH-oxazolo[4″,5″:4′,5′]cyclopenta[1′,2′:4,5]furo[3,2-b]pyridin-8a-yl)benzonitrile] | 100 to 1000 |
| COc1nc(Cl)cc2c1[C@]1(O)[C@H](O)[C@H](CN3CCC34CC4(F)F)[C@@H](c3ccccc3)[C@]1(c1ccc(Br)cc1)O2 (mixture of isomers) [220F, Rac-(5aR,6S,7S,8R,8aS)-5a-(4-bromophenyl)-3-chloro-7-((1,1-difluoro-4-azaspiro[2.3]hexan-4-yl)methyl)-1-methoxy-6-phenyl-5a,6,7,8-tetrahydro-8aH-cyclopenta[4,5]furo[3,2-c]pyridine-8,8a-diol] | < 100 |
| COc1cncc2c1[C@]1(O)C(CN3CCOCC3)C[C@@H](c3ccccc3)[C@]1(c1ccc(C(F)(F)F)cc1)O2 (mixture of isomers) [289F, Rac-(4bR,7S,7aR)-4-methoxy-5-(morpholinomethyl)-7-phenyl-7a-(4-(trifluoromethyl)phenyl)-5,6,7,7a-tetrahydro-4bH-cyclopenta[4,5]furo[2,3-c]pyridin-4b-ol] | 100 to 1000 |
| COc1ccc([C@@]23Oc4cc(OC)ccc4[C@]2(N=[N+]=[N-])[C@H](O)[C@H](C(=O)N(C)C)[C@H]3c2ccccc2)cc1 (racemic) [42F, Rac-(1R,2R,3S,3aR,8bS)-8b-azido-1-hydroxy-6-methoxy-3a-(4-methoxyphenyl)-N,N-dimethyl-3-phenyl-2,3-dihydro-1H-cyclopenta[b]benzofuran-2-carboxamide] | 100 to 1000 |
| COc1cncc2c1[C@]1(O)[C@@H](CNCc3ccncc3)[C@H](CO)[C@@H](c3ccccc3)[C@]1(c1ccc(Br)cc1)O2 (racemic) [187F, Rac-(4bR,5R,6R,7S,7aR)-7a-(4-bromophenyl)-6-(hydroxymethyl)-4-methoxy-7-phenyl-5-(((pyridin-4-ylmethyl)amino)methyl)-5,6,7,7a-tetrahydro-4bH-cyclopenta[4,5]furo[2,3-c]pyridin-4b-ol] | < 100 |
| CCN(C)C[C@H]1[C@@H](O)[C@@]2(O)c3c(OC)cncc3O[C@@]2(c2ccc(C#N)cc2)[C@@H]1c1ccccc1 (racemic) [74F, Rac-4-((4bS,5R,6S,7S,7aR)-6-((ethyl(methyl)amino)methyl)-4b,5-dihydroxy-4-methoxy-7-phenyl-4b,5,6,7-tetrahydro-7aH-cyclopenta[4,5]furo[2,3-c]pyridin-7a-yl)benzonitrile] | < 100 |
| COc1cncc2c1[C@]1(O)[C@H](O)[C@H](CN(C)C)[C@@H](c3ccccc3)[C@]1(c1ccc(C#N)cc1)O2 (single isomer, unassigned) [66F] | < 100 |
| COc1cncc2c1[C@]1(O)[C@H](O)[C@H](CN3[C@@H]4COC[C@H]3C4)[C@@H](c3ccccc3)[C@]1(c1ccc(C#N)cc1)O2 (racemic) [267F, Rac-4-((4bS,5R,6S,7S,7aR)-6-(((1R,5S)-3-oxa-6-azabicyclo[3.1.1]heptan-6-yl)methyl)-4b,5-dihydroxy-4-methoxy-7-phenyl-4b,5,6,7-tetrahydro-7aH-cyclopenta[4,5]furo[2,3-c]pyridin-7a-yl)benzonitrile] | 100 to 1000 |
| COc1nc(C#N)cc2c1[C@]1(O)[C@H](O)[C@H](CN3CC(C(F)F)C3)[C@@H](c3ccccc3)[C@]1(c1ccc(C#N)cc1)O2 (racemic) [218F, Rac-(5aR,6S,7S,8R,8aS)-5a-(4-cyanophenyl)-7-((3-(difluoromethyl)azetidin-1-yl)methyl)-8,8a-dihydroxy-1-methoxy-6-phenyl-5a,7,8,8a-tetrahydro-6H-cyclopenta[4,5]furo[3,2-c]pyridine-3-carbonitrile] | < 100 |

— patent publication US10577378B2, “EIF4A-inhibiting compounds and methods related thereto” (eFFECTOR Therapeutics, Inc., priority 2015, dated 2020)
